These molecules were tested against FXR (Homo sapiens (Human), UniProt Q96RI1) (assay: FXR EC50 (FXR agonist potency reported with each Example)).
Type: cell-based

Chain of FXR (Q96RI1 262-486): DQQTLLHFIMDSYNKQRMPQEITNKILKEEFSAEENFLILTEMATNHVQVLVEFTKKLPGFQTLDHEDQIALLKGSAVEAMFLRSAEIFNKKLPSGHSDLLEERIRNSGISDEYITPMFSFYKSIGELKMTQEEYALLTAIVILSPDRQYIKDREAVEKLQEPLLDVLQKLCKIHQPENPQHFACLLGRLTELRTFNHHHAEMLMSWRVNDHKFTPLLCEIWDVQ

Row | SMILES | EC50 [µM]
1 | CC(F)(F)c1nc(-c2cccc(N(CC34CCC(c5ccc(C(F)(F)F)cn5)(CC3)CC4)C(=O)C34CC(F)(C3)C4)c2)no1 [Example 190, N-(3-(5-(1,1-difluoroethyl)-1,2,4-oxadiazol-3-yl)phenyl)-3-fluoro-N-((4-(5-(trifluoromethyl)pyridin-2-yl)bicyclo[2.2.2]octan-1-yl)methyl)bicyclo[1.1.1]pentane-1-carboxamide] | 0.281
2 | O=C(C1CC(F)(F)C1)N(CC12CCC(c3cc(C(F)(F)F)ccn3)(CC1)CC2)c1cccc(-c2nc(C3CC3)no2)c1 [Example 49, N-(3-(3-cyclopropyl-1,2,4-oxadiazol-5-yl)phenyl)-3,3-difluoro-N-((4-(4-(trifluoromethyl)pyridin-2-yl)bicyclo[2.2.2]octan-1-yl)methyl)cyclobutane-1-carboxamide] | 1.37
3 | CC1(c2nc(C34CCC(CN(C(=O)C56CC(F)(C5)C6)c5cccc(-c6nc(C7CC7)no6)c5)(CC3)CC4)no2)CC1 [Example 115, N-(3-(3-cyclopropyl-1,2,4-oxadiazol-5-yl)phenyl)-3-fluoro-N-((4-(5-(1-methylcyclopropyl)-1,2,4-oxadiazol-3-yl)bicyclo[2.2.2]octan-1-yl)methyl) bicyclo[1.1.1]pentane-1-carboxamide] | 0.035
4 | COc1ccc(C23CCC(CN(C(=O)C45CC(F)(C4)C5)c4cccc(-c5nc(C6CC6)no5)c4)(CC2)CO3)cc1 [Example 128, N-(3-(3-Cyclopropyl-1,2,4-oxadiazol-5-yl)phenyl)-3-fluoro-N-((1-(4-methoxyphenyl)-2-oxabicyclo[2.2.2]octan-4-yl)methyl)bicyclo[1.1.1]pentane-1-carboxamide] | 0.403
5 | O=C(N(CC12CCC(c3nc(C4CC4)no3)(CC1)CC2)c1cccc(-c2cnn(S(=O)(=O)C3CC3)c2)c1)C12CC(F)(C1)C2 [Example 158, N-((4-(3-cyclopropyl-1,2,4-oxadiazol-5-yl)bicyclo[2.2.2]octan-1-yl)methyl)-N-(3-(1-(cyclopropylsulfonyl)-1H-pyrazol-4-yl)phenyl)-3-fluorobicyclo[1.1.1]pentane-1-carboxamide] | 0.043
6 | O=C(C1CC(F)(F)C1)N(CC12CCC(c3nc(C4CC4)no3)(CC1)OC2)c1cccc(-c2nc(C3CC3)no2)c1 [Example 197, N-((1-(3-cyclopropyl-1,2,4-oxadiazol-5-yl)-2-oxabicyclo[2.2.2]octan-4-yl)methyl)-N-(3-(3-cyclopropyl-1,2,4-oxadiazol-5-yl)phenyl)-3,3-difluorocyclobutane-1-carboxamide] | 0.965
7 | CCn1cc(-c2cccc(N(CC34CCC(c5nc(C6CC6)no5)(CC3)CC4)C(=O)C3CC(F)(F)C3)c2)oc1=O [Example 81, N-((4-(3-cyclopropyl-1,2,4-oxadiazol-5-yl)bicyclo[2.2.2]octan-1-yl)methyl)-N-(3-(3-ethyl-2-oxo-2,3-dihydrooxazol-5-yl)phenyl)-3,3-difluorocyclobutane-1-carboxamide] | 0.945
8 | CC1(c2nc(-c3cccc(N(CC45CCC(c6ccc(C(F)(F)F)cn6)(CC4)CC5)C(=O)C45CC(F)(C4)C5)c3)no2)CC1 [Example 186, 3-fluoro-N-(3-(5-(1-methylcyclopropyl)-1,2,4-oxadiazol-3-yl)phenyl)-N-((4-(5-(trifluoromethyl)pyridin-2-yl)bicyclo[2.2.2]octan-1-yl)methyl)bicyclo[1.1.1]pentane-1-carboxamide] | 0.625
9 | Cc1cnc(C23CCC(CN(c4cccc(-c5nc(C(F)F)co5)c4)C(=O)[C@H]4C[C@](O)(C(F)(F)F)C4)(CC2)CC3)o1 [Example 46, (cis)-N-(3-(4-(difluoromethyl)oxazol-2-yl)phenyl)-3-hydroxy-N-((4-(5-methyloxazol-2-yl)bicyclo[2.2.2]octan-1-yl)methyl)-3-(trifluoromethyl)cyclobutane-1-carboxamide] | 0.437
10 | O=C(N(CC12CCC(c3nc(C4CC4)no3)(CC1)CC2)c1cccc(-c2cnc(C3CC3)o2)c1)C12CC(F)(C1)C2 [Example 23, N-((4-(3-cyclopropyl-1,2,4-oxadiazol-5-yl)bicyclo[2.2.2]octan-1-yl)methyl)-N-(3-(2-cyclopropyloxazol-5-yl)phenyl)-3-fluorobicyclo[1.1.1]pentane-1-carboxamide] | 0.072
11 | CC(N(C(=O)C12CC(F)(C1)C2)c1cccc(-c2cnc(C3CC3)o2)c1)C12CCC(c3nc(C4CC4)no3)(CC1)CC2 (single isomer, unassigned) [Example 216, N-(1-(4-(3-cyclopropyl-1,2,4-oxadiazol-5-yl)bicyclo[2.2.2]octan-1-yl)ethyl)-N-(3-(2-cyclopropyloxazol-5-yl)phenyl)-3-fluorobicyclo[1.1.1]pentane-1-carboxamide] | 0.511
12 | Cn1cc(-c2cccc(N(CC34CCC(c5nc(C6CC6)no5)(CC3)CC4)C(=O)C34CC(F)(C3)C4)c2)nc1C1CC1 [Example 130, N-((4-(3-cyclopropyl-1,2,4-oxadiazol-5-yl)bicyclo[2.2.2]octan-1-yl)methyl)-N-(3-(2-cyclopropyl-1-methyl-1H-imidazol-4-yl)phenyl)-3-fluorobicyclo[1.1.1]pentane-1-carboxamide] | 0.585
13 | CCNC(=O)N(CC12CCC(c3nc(C4CC4)no3)(CC1)CC2)c1cccc(-c2nc(C3CC3)no2)c1 [Example 95, 1-((4-(3-cyclopropyl-1,2,4-oxadiazol-5-yl)bicyclo[2.2.2]octan-1-yl)methyl)-1-(3-(3-cyclopropyl-1,2,4-oxadiazol-5-yl)phenyl)-3-ethylurea] | 0.59
14 | O=C(C1CC(F)(F)C1)N(CC12CCC(c3nc(C4CC4)no3)(CC1)CC2)c1cccc(-c2nnc(C3CC3)o2)c1 [Example 87, N-((4-(3-cyclopropyl-1,2,4-oxadiazol-5-yl)bicyclo[2.2.2]octan-1-yl)methyl)-N-(3-(5-cyclopropyl-1,3,4-oxadiazol-2-yl)phenyl)-3,3-difluorocyclobutane-1-carboxamide] | 0.712
15 | Cn1nc(-c2cccc(N(CC34CCC(c5nc(C6CC6)no5)(CC3)CC4)C(=O)C34CC(F)(C3)C4)c2)cc1C1CC1 [Example 75, N-((4-(3-cyclopropyl-1,2,4-oxadiazol-5-yl)bicyclo[2.2.2]octan-1-yl)methyl)-N-(3-(5-cyclopropyl-1-methyl-1H-pyrazol-3-yl)phenyl)-3-fluorobicyclo[1.1.1]pentane-1-carboxamide] | 0.247
16 | N#CC1(c2ccc(C34CCC(CN(C(=O)C5CC(F)(F)C5)c5cccc(-c6nc(C7CC7)no6)c5)(CC3)CO4)cc2)CC1 [Example 142, N-((1-(4-(1-cyanocyclopropyl)phenyl)-2-oxabicyclo[2.2.2]octan-4-yl)methyl)-N-(3-(3-cyclopropyl-1,2,4-oxadiazol-5-yl)phenyl)-3,3-difluorocyclobutuane-1-carboxamide] | 0.583
17 | O=C(N(CC12CCC(c3nc(C(F)F)no3)(CC1)CC2)c1cccc(-c2noc(C3CC3)n2)c1)C12CC(F)(C1)C2 [Example 172, N-(3-(5-cyclopropyl-1,2,4-oxadiazol-3-yl)phenyl)-N-((4-(3-(difluoromethyl)-1,2,4-oxadiazol-5-yl)bicyclo[2.2.2]octan-1-yl)methyl)-3-fluorobicyclo[1.1.1]pentane-1-carboxamide] | 0.154

From patent publication US11254663B2 (BRISTOL-MYERS SQUIBB COMPANY, priority 2019, dated 2022)
